Laboratory results from article PMC7764826, “Flavonol Glycosides: In Vitro Inhibition of DPPIV, Aldose Reductase and Combating Oxidative Stress are Potential Mechanisms for Mediating the Antidiabetic Activity of Cleome droserifolia” (Molecules, 2020).
pIC50: −log10 of the molar value.

Legend:
aldose reductase = target: T1, aldose reductase (Homo sapiens, UniProt P15121); assay: Aldose Reductase Inhibitor Screening Kit (NADPH absorbance at 340 nm); assay type: biochemical; conditions: in vitro; for IC50: mean ± SEM of two replicates, read-out: Aldose reductase inhibition IC50 (converted)
T1 construct: purchased Biovision
Description: Determination of the aldose reductase inhibitory effectiveness of the investigated samples was performed kinetically using the Aldose Reductase Inhibitor Screening Kit (Biovision, Milpitas, CA, USA), according to the manufacturer׳s protocol. The decrease in the absorption of NADPH at 340 nm was measured in a mixture containing NADPH, the enzyme and its substrate, DL-glyceraldeyde in addition to test samples [31]. […] A 90 μL of freshly prepared Aldose Reductase Solution was then added and the plate was incubated protected from light at 37 °C for 15–20 min. After incubation, 40 μL enzyme substrate in assay buffer was added and the absorbance was measured at 340 nm kinetically for 60–90 min at 37 °C. A background control free from the enzyme was run and subtracted from the readings. The IC50 was calculated and presented for the samples and the standard.

[1] = target: T2, Dipeptidyl peptidase IV (DPPIV) (Homo sapiens, UniProt P27487); assay: DPPIV Inhibitor Screening Kit (fluorescence); assay type: biochemical; conditions: in vitro, mean ± SEM of two replicates; read-out: DPPIV inhibition IC50 (converted)
T2 construct: purchased Abnova
From the text: The DPPIV Inhibitor Screening Kit (Abnova, Taipei, Taiwan) was used in accordance to the manufacturer׳s protocol.

[2] = Ferric reducing antioxidant power (FRAP) assay; conditions: expressed in µM FeCl2; isolated compounds at 200 µg/mL
Description: The antioxidant potential of the extract and the isolated compounds was assessed according to the assay originally designed by Benzie and Strain (1996) using the DetectX® Ferric Reducing Antioxidant Power (FRAP™) Detection Kit by Arbor assays, Ann Arbor, USA. In the provided plate, 75 µL of the prepared FRAP Color Solution was mixed with 20 µL of either the aqueous extract (400 µg/mL), the isolated compounds (200 µg/mL), different concentrations of the standard ferrous chloride or ascorbic acid positive control. The mixture was incubated for 30 min at room temperature and the produced blue colored product was read at 560 nm. The FRAP values were calculated and expressed in µM FeCl2.

[3] = DPPH radical scavenging assay; conditions: 30 min, room temperature, 517 nm
Description: The free radical scavenging capacity of the parent extract of C. droserifolia together with the isolated compounds was estimated using 2,2-diphenyl-1-picrylhydrazil (DPPH) as described previously. In brief, 240 µL of 0.004% DPPH in methanol was added to 8 µL of the parent extract and the isolated compounds at different concentrations: (2, 4, 12, 16 µg/mL) and (0.5, 1, 3, 4 µg/mL), respectively. The reaction mixture was mixed and incubated in dark for 30 min at room temperature. The absorbance was then measured at 517 nm against blank that was done using water instead of the plant extract. Ascorbic acid was used as the antioxidant standard and the IC50 value for samples and standard was determined.

[4] = tested on: cultured skeletal muscle cells and adipocytes; parameters: method as in PMID 21890334; conditions: in vitro; cited from earlier work
[5] = target: T3, α-amylase from porcine pancreas (Sus scrofa, UniProt P00690); assay: α-amylase inhibition assay (CNPG3 substrate, kinetic); assay type: biochemical; conditions: in vitro, pH 6.9, 37 °C
T3 construct: purchased Sigma Aldrich
T3 sequence (P00690 16-511): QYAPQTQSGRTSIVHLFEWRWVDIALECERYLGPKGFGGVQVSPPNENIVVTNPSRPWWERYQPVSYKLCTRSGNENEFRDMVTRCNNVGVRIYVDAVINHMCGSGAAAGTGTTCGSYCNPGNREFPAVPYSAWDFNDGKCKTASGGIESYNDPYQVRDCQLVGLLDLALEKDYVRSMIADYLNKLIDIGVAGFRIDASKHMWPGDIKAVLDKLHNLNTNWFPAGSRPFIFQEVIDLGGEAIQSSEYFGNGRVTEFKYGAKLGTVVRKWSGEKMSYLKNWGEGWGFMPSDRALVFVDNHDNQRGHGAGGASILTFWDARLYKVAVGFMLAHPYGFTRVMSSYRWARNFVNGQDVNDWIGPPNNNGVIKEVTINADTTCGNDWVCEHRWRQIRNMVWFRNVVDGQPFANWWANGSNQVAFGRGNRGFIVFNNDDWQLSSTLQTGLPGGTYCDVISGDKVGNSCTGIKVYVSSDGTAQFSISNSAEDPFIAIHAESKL
Description: (§1) Alpha-glucosidase enzyme from Saccharomyces cerevisiae, α-amylase from porcine pancreas and 2-chloro-4-nitrophenyl-α-D-maltotrioside (CNPG3) were purchased from Sigma Aldrich. All other chemicals were purchased from UFC Biotechnology. A microplate reader (Anthos Zenyth-200RT, Cambridge, UK) was used for the spectrophotometric measurements. A Bruker NMR Spectrometer (Bruker, Yokohama, Japan) used for ^1H-NMR (400 MHZ) and ^13C-NMR (100 MHz) analysis. Spectra were recorded in CD3OD or DMSO-d6 using tetramethylsilane (Sigma-Aldrich, St. Louis, MO, USA) as an internal standard, and chemical shift values were expressed in δ ppm.
A pre-incubation mixture was prepared which contained 40 mM phosphate buffer (pH 6.9) together with different concentrations (10, 50, 100, 200 µg/mL) and (5, 20, 50, 100 µg/mL) for the parent extract and the isolated compounds, respectively. […] Then, 2-chloro-4-nitrophenyl maltotrioside (CNPG3) substrate was added where the final concentration was 0.9 µmole/mL. […] A control which was devoid of the test samples was also run in parallel.

liver (HepG2) carcinoma = conditions: cited from earlier work
colon (HCT116) carcinoma = conditions: cited from earlier work
[6] = target: Alpha-glucosidase enzyme from Saccharomyces cerevisiae; assay: α-glucosidase inhibition assay (PNP-G substrate); assay type: biochemical; conditions: in vitro, pH 6.9, 37 °C
Description: as §1
The tested samples were added to a reaction mixture in a 96-well microplate containing 20 µL of the phosphate buffer and 20 µL of 5 mM p-nitrophenyl α -D-glucopyranoside (PNP-G) in the buffer. […] The IC50 for test compounds as well as the standard was calculated and presented.

breast (MCF7) carcinoma = conditions: cited from earlier work

T2 sequence (P27487 whole entry, species assumed): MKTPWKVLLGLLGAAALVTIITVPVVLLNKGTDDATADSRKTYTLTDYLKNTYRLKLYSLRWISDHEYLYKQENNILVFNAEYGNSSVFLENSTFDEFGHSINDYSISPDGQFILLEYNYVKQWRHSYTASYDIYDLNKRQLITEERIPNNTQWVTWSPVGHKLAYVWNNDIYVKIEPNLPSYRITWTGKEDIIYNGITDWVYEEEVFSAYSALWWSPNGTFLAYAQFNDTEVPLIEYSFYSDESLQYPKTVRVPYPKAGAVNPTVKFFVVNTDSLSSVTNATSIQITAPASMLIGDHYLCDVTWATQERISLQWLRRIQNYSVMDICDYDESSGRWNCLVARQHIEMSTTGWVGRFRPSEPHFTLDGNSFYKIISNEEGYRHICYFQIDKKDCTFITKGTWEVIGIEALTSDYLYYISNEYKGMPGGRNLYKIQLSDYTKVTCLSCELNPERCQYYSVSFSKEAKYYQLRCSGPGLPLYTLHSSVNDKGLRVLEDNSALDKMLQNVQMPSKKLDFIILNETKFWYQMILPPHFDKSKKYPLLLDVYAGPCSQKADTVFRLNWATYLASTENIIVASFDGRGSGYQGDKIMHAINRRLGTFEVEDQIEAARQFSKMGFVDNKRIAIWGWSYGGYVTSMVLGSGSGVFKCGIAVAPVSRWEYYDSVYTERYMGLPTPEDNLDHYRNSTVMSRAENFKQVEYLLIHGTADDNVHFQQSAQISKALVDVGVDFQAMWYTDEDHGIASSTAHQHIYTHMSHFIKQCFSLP

Row | SMILES | IC50 (aldose reductase) | melting point | IC50 [1] | FRAP value [2] | DPPH radical scavenging IC50 [3] | Effect on basal glucose uptake (in words) [4] | pIC50 [5] | Cytotoxic activity (in words) (liver (HepG2) carcinoma) | Cytotoxic activity (in words) (colon (HCT116) carcinoma) | α-glucosidase inhibition IC50 [6] | Cytotoxic activity (in words) (breast (MCF7) carcinoma) | Aldose reductase inhibitory activity (in words) (aldose reductase)
1 | COc1cc(-c2oc3cc(O[C@@H]4O[C@H](CO)[C@@H](O)[C@H](O)[C@H]4O[C@@H]4O[C@@H](C)[C@H](O)[C@@H](O)[C@H]4O)cc(O)c3c(=O)c2O)ccc1O [Compound 2, isorhamnetin-7-O-β-D-neohesperidoside] | 8.73 µM | 225 °C | 0.917 µM |  |  |  |  |  |  |  |  | 
2 | C[C@@H]1O[C@@H](Oc2cc(O)c3c(=O)c(O[C@@H]4O[C@H](CO)[C@@H](O)[C@H](O)[C@H]4O)c(-c4ccc(O)c(O)c4)oc3c2)[C@H](O)[C@H](O)[C@H]1O [Compound 1, quercetin-3-O-β-D-glucosyl-7-O-α-rhamnoside] | 50 µM |  | 0.318 µM | 3106 ± 52.2 µM | 5.67 ± 0.09 µg/mL |  |  |  |  |  |  | 
3 | COc1cc(-c2oc3cc(O)cc(O)c3c(=O)c2O[C@@H]2O[C@H](CO)[C@@H](O)[C@H](O)[C@H]2O)ccc1O [Compound 3, isorhamnetin-3-O-β-D-glucoside] | 45 µM |  | 0.721 µM |  |  |  |  |  |  |  |  | 
4 | COc1ccc(-c2oc3cc(O[C@@H]4O[C@@H](C)[C@H](O)[C@@H](O)[C@H]4O)cc(O)c3c(=O)c2O[C@@H]2O[C@@H](C)[C@H](O)[C@@H](O)[C@H]2O)cc1 [Compound 4, kaempferol-4′-methoxy-3,7-O-α-dirhamnoside] | 51.8 µM |  | 0.474 µM | 1812 ± 33.2 µM | 9.44 ± 0.13 µg/mL | significant insulin-like effects | 3.59 | potent cytotoxic activities | potent cytotoxic activities | 110.09 ± 4.2 µg/mL | potent cytotoxic activities | 
5 | COc1cc(-c2oc3cc(O[C@@H]4O[C@@H](C)[C@H](O)[C@@H](O)[C@H]4O)cc(O)c3c(=O)c2O[C@@H]2O[C@@H](C)[C@H](OC(C)=O)[C@@H](O)[C@H]2O)ccc1O [Compound 5, isorhamnetin-3-O-α-(4″- acetylrhamnoside)-7-O-α-rhamnoside] | 119 µM | 257 °C |  | 3610 ± 88.3 µM | 11.45 ± 0.48 µg/mL | significant insulin-like effects | 3.79 | potent cytotoxic activities | potent cytotoxic activities | 86.54 ± 3.8 µg/mL | potent cytotoxic activities | least aldose reductase inhibitory activity
6 | O=C1O[C@H]([C@@H](O)CO)C(O)=C1O [ascorbic acid, reference compound] |  |  |  | 685.2 ± 1.07 µM | 1.37 ± 0.07 µg/mL |  |  |  |  |  |  | 
